# Experimental data: patent US20090209527A1, “Methods for Using Rapamycin Analogues in the Treatment of Neurological Disorders” (Wyeth, priority 2008, published 2009)
# pEC50: −log10 of the molar value.
# Columns and labels:
# [1] = tested on: Spinal cord neuron cultures; assay: Spinal cord neuron assay; assay type: cell-based; conditions: Rattus norvegicus, 72 hours treatment, read-out: EC50 in spinal cord neuron assays
# Description: Spinal cord neuron cultures were prepared from embryonic day 15 (E15) rat embryos (Liu et al., Screening of Immunophilin Ligands by Quantitative Analysis of Neurofilament Expression and Neurite Outgrowth in Cultured Neurons and Cells, J. Neurosci. Methods, 2007 Jul. 30; 163(2):310-20). The embryos were collected and their spinal cords were removed in ice-cold phosphate-buffered saline (PBS) without Ca^2+ and Mg^2+. Dissected pieces of spinal cord tissue were pooled together and transferred to an enzymatic dissociation media containing 20 IU/mL papain in Earle's balanced salt solution (Worthington Biochemical, Freehold, N.J.) and incubated for 30 minutes at 37° C. After enzymatic dissociation, the papain solution was aspirated and the tissue mechanically triturated with a fire-polished Pasteur pipette in complete media [Neurobasal Medium with B-27 supplement (Gibco, Grand Island, N.Y.), 100 IU/mL penicillin, 100 µg/mL streptomycin, […] aphidicolin, 0.5 mM glutamate] containing 2,000 IU/mL DNase and 10 mg/mL ovomucoid protease inhibitor. Single-cell suspensions in complete media were plated on pre-coated poly-L-ornithine/laminin 96-well plates (Becton-Dickinson, Bedford, Mass.) at a density of 1.0×10^4 cells/well. Spinal cord neurons were maintained for 24 hours then exposed to vehicle or various concentrations of compound for 72 hours.
# [2] = tested on: tMCAO in rats; assay: Transient middle cerebral artery occlusion (tMCAO) model of ischemic stroke; assay type: in vivo, rat; conditions: for reduction of infarct volume: 72 hours
# Description: The compound of Example 2 was evaluated in two known rodent models of ischemic stroke. [Bederson J B, Pitts L H, Tsuji M, Nishimura M C, Davis R L, Bartkowski H (1986) Rat middle cerebral artery occlusion: evaluation of the model and development of a neurologic examination. Stroke 17(3): 472-476; Chen S T, Hsu C Y, Hogan E L, Maricq H Balentine J D (1986) A model of focal ischemic stroke in the rat: reproducible extensive cortical infarction. Stroke 17:738-743. DeRyck M, van Reempts J, Duytschaever H, van Deuren B, Clincke G (1992) Neocortical localization of tactile/proprioceptive limb placing reactions in the rat. Brain Res 573:44-60; Longa Z E, Weinstein P R, Carlson S, Cummins R. (1989) Reversible middle cerebral artery occlusion without craniectomy in rats. Stroke 20:294-297.]
# The first model is a transient middle cerebral artery occlusion (tMCAO), in which the MCA is occluded for 90 minutes, followed by 72 hours of reperfusion. Rats were subjected to tMCAO and treated with either the compound of Example 2 (3 mg/kg, 10 mg/kg, or 30 mg/kg) via intravenous delivery [iv vehicle: 5% Tween 80, 5% PEG 400, 4% ethanol] or vehicle alone at 4, 6, 24, and 48 hours post-occlusion (4 total doses). Neurological deficits (modified Bederson scale) and weight loss were monitored at 0, 24, 48, and 72 hours post occlusion. At the end of the evaluation period, rats were euthanized and infarct volume was determined. A modified Bederson scale was used to evaluate neurological deficits following stroke. Animals were scored on a scale of 0 to 5, based on five parameters (forelimb flexion, torso twisting, resistant to lateral push, circling to contralateral side, and spontaneous circling). A score of 0 is normal whereas a score of 5 represents severe neurological deficits.
# [3] = tested on: pMCAO in rats; assay: Permanent occlusion of middle cerebral artery (pMCAO), Example 10, behavioral deficit scoring over 21 days; assay type: in vivo, Wistar rats; conditions: 10 mg/kg i.v. 1.5, 5.5, 24, 48 and 72 hours post ischemia
# Description: Administration of Compound of Example 2—10 mg/kg i.v. 1.5, 5.5, 24, 48, and 72 hours post ischemia.
# Adult male Wistar rats (Charles River, Wilmington, Mass.) 270 g to 300 g were anesthetized with 3% isoflurane in 70% nitrous oxide and 30% oxygen through a nose cone. Temperature was maintained at 37° C. throughout the surgery using a heating lamp. Permanent occlusion of MCAO was induced by electro cauterization of the distal portion of the MCA (via a craniotomy) with a 90 minute ligation of both carotid arteries to interrupt collateral circulation (Chen S T, Hsu C Y, Hogan E L, Maricq H Balentine J D (1986) A model of focal ischemic stroke in the rat: reproducible extensive cortical infarction. Stroke 17:738-743). Compound was administered 10 mg/kg i.v. 1.5, 5.5, 24, 48, and 72 hours post ischemia. Rats were kept for 21 days for long-term functional recovery evaluation. […] Rats extending both forelimbs toward the table were scored as 0, flexing contralateral limb toward the body and/or rotating the contralateral shoulder and limb medially were scored as 1, and rolling up the body toward the contralateral side and attempting to grasp the tail were scored as 2. […] Rats retracting hind limb back on bench top immediately were scored as 0, delaying (>2 seconds) were scored as 1, and unable to retract hind limb were score as 2. […]
compound,measurement,setting,value
"CO[C@H]1C[C@@H]2CC[C@@H](C)[C@@](O)(O2)C(=O)C(=O)N2CCCC[C@H]2C(=O)O[C@H]([C@H](C)C[C@@H]2CC[C@@H](O)[C@H](OC)C2)CC(=O)[C@H](C)/C=C(\C)[C@@H](O)[C@@H](OC)C(=O)[C@H](C)C[C@H](C)[C@@H]2CC[C@H](/C=C/1C)ON2c1ccccc1 [Example 2, 9,27-dihydroxy-3-{2-[4-hydroxy-3-methoxycyclohexyl]-1-methylethyl}-10,21-dimethoxy-6,8,12,14,20,26-hexamethyl-37-phenyl-4,9,10,12,13,14,15,16,17,18,21,22,23,24,25,26,27,32,33,34,34a-henicosahydro-3H-23,27-epoxy-18,15-(epoxyimino)pyrido[2,1-c][1,4]oxazacyclohentriacontine-1,5,11,28,29(6H,31H)-pentone]",pEC50,[1],> 6.00
same,weight loss following tMCAO,[2]; 3 mg/kg iv,significantly attenuated weight loss
same,neurological deficits (modified Bederson scale) following tMCAO vs vehicle,"[2]; 3 mg/kg iv at 4, 6, 24 and 48 hours post-occlusion","showed trends of improving neurological deficits, but did not reach statistical significance"
same,reduction of infarct volume,"[2]; 3 mg/kg iv, did not reach statistical significance",9%
same,weight loss following tMCAO,[2]; 10 mg/kg iv,significantly attenuated weight loss
same,neurological deficits (modified Bederson scale) following tMCAO vs vehicle,"[2]; 10 mg/kg iv at 4, 6, 24 and 48 hours post-occlusion",significantly improved neurological deficits
same,reduction of infarct volume,"[2]; 10 mg/kg iv, significant vs vehicle",24%
same,weight loss following tMCAO,[2]; 30 mg/kg iv,significantly attenuated weight loss
same,neurological deficits (modified Bederson scale) following tMCAO vs vehicle,"[2]; 30 mg/kg iv at 4, 6, 24 and 48 hours post-occlusion",significantly improved neurological deficits
same,reduction of infarct volume,"[2]; 30 mg/kg iv, significant vs vehicle",23%
same,infarct volume following tMCAO in rats (FIG. 10),[2]; dose not stated,reduces infarct volume
same,neurological deficits following tMCAO in rats (FIG. 8),[2]; dose not stated,improves neurological deficits
same,weight loss following tMCAO in rats (FIG. 9),[2]; dose not stated,attenuates weight loss
same,behavior deficit scoring (total score 0 to 12) following pMCAO,[3],statistically significant reduction of behavior deficit scoring
